Laboratory results as given in ChEMBL document CHEMBL1201862, “PubChem BioAssay data set” (2004).
Activity calls are given as the source filed them.

Key:
[1] = target: T1, Replicative DNA helicase DnaB (Mycobacterium tuberculosis, UniProt P9WMR3); experiment: DnaB intein splicing inhibitors, dose response, biochemical, cell-free fluorescence (AID 449749); type: functional
T1 sequence (P9WMR3 whole entry): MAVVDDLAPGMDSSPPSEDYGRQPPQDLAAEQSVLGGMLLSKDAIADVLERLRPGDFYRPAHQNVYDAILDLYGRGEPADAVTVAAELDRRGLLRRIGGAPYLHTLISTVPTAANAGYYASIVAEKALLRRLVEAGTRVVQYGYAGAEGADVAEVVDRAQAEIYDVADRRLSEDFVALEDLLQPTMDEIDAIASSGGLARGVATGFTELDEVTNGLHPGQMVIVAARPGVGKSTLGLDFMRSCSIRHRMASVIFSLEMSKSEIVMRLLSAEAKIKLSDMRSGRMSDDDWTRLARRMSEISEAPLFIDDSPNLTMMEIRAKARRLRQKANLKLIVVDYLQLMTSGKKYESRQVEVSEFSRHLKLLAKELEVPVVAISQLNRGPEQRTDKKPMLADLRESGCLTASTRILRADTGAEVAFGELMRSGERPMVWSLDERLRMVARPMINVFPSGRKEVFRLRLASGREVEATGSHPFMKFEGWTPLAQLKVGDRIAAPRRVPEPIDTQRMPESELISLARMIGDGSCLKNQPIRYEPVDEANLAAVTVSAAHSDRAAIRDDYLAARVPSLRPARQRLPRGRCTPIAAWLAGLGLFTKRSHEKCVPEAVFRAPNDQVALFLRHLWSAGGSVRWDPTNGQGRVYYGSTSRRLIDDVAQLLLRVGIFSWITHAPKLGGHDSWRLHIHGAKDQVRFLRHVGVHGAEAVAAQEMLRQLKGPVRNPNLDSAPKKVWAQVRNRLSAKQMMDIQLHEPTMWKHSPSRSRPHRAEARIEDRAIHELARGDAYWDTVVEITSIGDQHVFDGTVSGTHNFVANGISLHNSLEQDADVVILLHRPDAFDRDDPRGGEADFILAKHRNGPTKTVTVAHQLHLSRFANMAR

Streptokinase A = target: T2, Streptokinase A (Streptococcus pyogenes serotype M1, UniProt P10520); experiment: viability-normalized secreted streptokinase activity reduction – plasminogen activation absorbance, OD405, dose response (AID 1914); type: functional, Streptococcus pyogenes M1 GAS;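 also: secreted streptokinase activity via plasminogen activation per viability signal from cell pellet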
T2 sequence (P10520 whole entry): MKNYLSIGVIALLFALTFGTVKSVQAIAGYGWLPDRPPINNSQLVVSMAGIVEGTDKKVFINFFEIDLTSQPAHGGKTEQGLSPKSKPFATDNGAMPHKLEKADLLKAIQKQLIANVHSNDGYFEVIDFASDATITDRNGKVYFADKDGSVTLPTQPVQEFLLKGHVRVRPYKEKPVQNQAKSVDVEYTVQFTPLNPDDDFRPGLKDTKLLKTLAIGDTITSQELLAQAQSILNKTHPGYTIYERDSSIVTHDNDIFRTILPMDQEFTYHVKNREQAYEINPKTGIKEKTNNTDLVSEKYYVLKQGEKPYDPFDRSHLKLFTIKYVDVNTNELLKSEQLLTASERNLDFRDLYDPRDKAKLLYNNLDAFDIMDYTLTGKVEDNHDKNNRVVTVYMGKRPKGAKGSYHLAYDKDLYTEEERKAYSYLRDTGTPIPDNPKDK

INS1 = experiment: INS-1E survival protection against cytokine death – cell-based, luminescence, retest, dose response (AID 449756); type: functional; settings: Rattus norvegicus;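 also: cell death triggered by IL-1 beta plus TNF-alpha plus IFN-gamma mixture; protective hits raise ATP signal compared with cytokine alone wells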
[2] = target: NACHT, LRR and PYD domains-containing protein 3 (Homo sapiens, UniProt Q96P20); experiment: NALP3 inhibitors in yeast, dose response, luminescent (AID 488799); type: functional
Chain of NACHT, LRR and PYD domains-containing protein 3 (Q96P20 whole entry, the tested form may be a part): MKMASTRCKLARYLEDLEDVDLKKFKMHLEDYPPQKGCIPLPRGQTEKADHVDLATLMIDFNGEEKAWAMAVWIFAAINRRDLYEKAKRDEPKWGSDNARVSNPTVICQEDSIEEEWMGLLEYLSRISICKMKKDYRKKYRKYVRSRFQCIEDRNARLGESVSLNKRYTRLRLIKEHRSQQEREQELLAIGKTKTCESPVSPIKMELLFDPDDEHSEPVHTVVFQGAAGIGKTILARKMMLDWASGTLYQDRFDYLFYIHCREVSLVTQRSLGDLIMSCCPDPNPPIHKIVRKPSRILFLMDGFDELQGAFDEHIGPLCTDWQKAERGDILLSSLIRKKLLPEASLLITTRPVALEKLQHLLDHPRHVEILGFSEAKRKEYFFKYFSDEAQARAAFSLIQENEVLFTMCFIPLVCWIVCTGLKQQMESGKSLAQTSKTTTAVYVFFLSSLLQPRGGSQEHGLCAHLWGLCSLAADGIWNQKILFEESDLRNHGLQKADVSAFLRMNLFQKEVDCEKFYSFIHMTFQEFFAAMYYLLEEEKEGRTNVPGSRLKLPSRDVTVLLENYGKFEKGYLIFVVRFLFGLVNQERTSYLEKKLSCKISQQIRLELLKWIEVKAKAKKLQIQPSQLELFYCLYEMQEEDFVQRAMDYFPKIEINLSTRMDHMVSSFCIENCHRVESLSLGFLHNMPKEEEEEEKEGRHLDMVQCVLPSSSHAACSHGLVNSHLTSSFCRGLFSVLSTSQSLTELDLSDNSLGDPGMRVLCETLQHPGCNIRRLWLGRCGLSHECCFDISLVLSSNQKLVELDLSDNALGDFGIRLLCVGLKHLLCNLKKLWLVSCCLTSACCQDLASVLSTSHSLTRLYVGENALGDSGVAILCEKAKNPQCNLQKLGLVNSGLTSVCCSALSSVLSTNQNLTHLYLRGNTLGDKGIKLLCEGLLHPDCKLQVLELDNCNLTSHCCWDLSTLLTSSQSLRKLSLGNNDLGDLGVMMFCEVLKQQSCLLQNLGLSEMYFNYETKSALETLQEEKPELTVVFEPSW

COc1ccc(CNC(=O)c2c(C)oc3c2C(=O)c2ccccc2C3=O)cc1
AC50 [1]: 13.3 µM (active)
EC50 (Streptokinase A): > 150 µM (not active)
AC50 (INS1): 2.8 µM (active)
IC50 [2]: 9.7 µM (active)

CCSc1nsc(NC(=O)Nc2cccc(F)c2)n1
EC50 (Streptokinase A): 40.5 µM (active)
IC50 [2]: 1.97 µM (active)

O=[N+]([O-])c1ccc(/C=N/n2cnc3ccccc32)s1
AC50 (INS1): 2.6 µM (active)

CC(C)c1ccc(S(=O)(=O)/N=C2\C=C(NS(=O)(=O)c3ccccc3)C(=O)c3ccccc32)cc1
AC50 [1]: 3.92 µM (active)
